Experimental data: ChEMBL document CHEMBL1141476, “Novel echinocandin antifungals. Part 1: novel side-chain analogs of the natural product FR901379” (Bioorg Med Chem Lett, 2008)
Values after ≈ are worked out from the molar mass of the structure shown. Starred links: 1 amine or outer side, 2 acyl side, 3 side chain; linkers in the order of their positions; H or OH if unused. Positions of bridges follow the written chain, without caps; N, C: chain ends. Non-standard residues stand in square brackets, D forms with d. Residues, ends and D or L forms follow the SMILES beside them. *: point of attachment. hTyr(3S-OH,4S-OH,3'-OSO3H) = N[C@H](C(=O)O)[C@H](O)[C@@H](O)c1ccc(O)c(OS(=O)(=O)O)c1; Orn(4R-OH,5R-OH) = O=C([C@H](C[C@@H](O)[C@@H](O)N[*:3])N[*:1])[*:2]; Orn(4R-OH,5S-OH) = O=C([C@H](C[C@@H](O)[C@H](O)N[*:3])N[*:1])[*:2]; Pro(3S-OH,4S-Me) = C[C@H]1CN[C@H](C(=O)O)[C@H]1O; X1 = CCCCOc1ccc(-c2ccc(-c3ccc(C(=O)*)cc3)cc2)cc1; Benzoyl(4-octyloxy) = CCCCCCCCOc1ccc(C(=O)*)cc1; Gln(3R-OH) = NC(=O)C[C@@H](O)[C@H](N)C(=O)O; Hyp = O=C(O)[C@@H]1C[C@@H](O)CN1

Columns and labels:
Candida albicans [1] = assay: Antifungal activity against Candida albicans FP633; format: functional
Aspergillus fumigatus [2] = assay: Antifungal activity against Aspergillus fumigatus FP1305; format: functional, organism-based
[3] = Effect on hemolysis in red blood cells; format: ADME, cell-based, Erythrocyte
Aspergillus fumigatus [4] = assay: Antifungal activity against Aspergillus fumigatus 8004 in in vivo model; format: functional
Candida albicans [5] = assay: Antifungal activity against Candida albicans FP633 in in vivo model; format: functional

Compound | MIC (Candida albicans [1]) | IC50 (Aspergillus fumigatus [2]) | LC30 [3] | ED50 (Aspergillus fumigatus [4]) | ED50 (Candida albicans [5])
CCCCCCCOc1ccc(-c2ccc(C(=O)N[C@@H]3C[C@@H](O)[C@@H](O)NC(=O)[C@@H]4[C@@H](O)[C@@H](C)CN4C(=O)[C@H]([C@H](O)CC(N)=O)NC(=O)[C@H]([C@H](O)[C@@H](O)c4ccc(O)c(OS(=O)(=O)[O-])c4)NC(=O)[C@@H]4C[C@@H](O)CN4C(=O)C([C@@H](C)O)NC3=O)cc2)cc1.[Na+] (stereo not given in full) | 0.1 µg/mL | 0.002 µg/mL | 910 µg/mL |  | 
CCCCOc1ccc(-c2ccc(-c3ccc(C(=O)N[C@H]4C[C@@H](O)[C@@H](O)NC(=O)[C@@H]5[C@@H](O)[C@@H](C)CN5C(=O)[C@H]([C@H](O)CC(N)=O)NC(=O)[C@H]([C@H](O)[C@@H](O)c5ccc(O)c(OS(=O)(=O)O)c5)NC(=O)[C@@H]5C[C@@H](O)CN5C(=O)[C@H]([C@@H](C)O)NC4=O)cc3)cc2)cc1 (X1-[Orn(4R-OH,5R-OH)]T[Hyp][hTyr(3S-OH,4S-OH,3'-OSO3H)][Gln(3R-OH)][Pro(3S-OH,4S-Me)]; lactam 1-C) [listing 1 of 2 here] |  | 0.002 µg/mL (≈ 1.58 nM) | 370 µg/mL (≈ 292000 nM) |  | 
CCCCCCCCOc1ccc2cc(C(=O)N[C@@H]3C[C@@H](O)[C@@H](O)NC(=O)[C@@H]4[C@@H](O)[C@@H](C)CN4C(=O)[C@H]([C@H](O)CC(N)=O)NC(=O)[C@H]([C@H](O)[C@@H](O)c4ccc(O)c(OS(=O)(=O)[O-])c4)NC(=O)[C@@H]4C[C@@H](O)CN4C(=O)C([C@@H](C)O)NC3=O)ccc2c1.[Na+] (stereo not given in full) | 0.1 µg/mL | 0.003 µg/mL | > 10000 µg/mL | 0.79 mg/kg | 0.46 mg/kg
CCCCCOc1ccc(-c2ccc(/C=C/C(=O)N[C@@H]3C[C@@H](O)[C@@H](O)NC(=O)[C@@H]4[C@@H](O)[C@@H](C)CN4C(=O)[C@H]([C@H](O)CC(N)=O)NC(=O)[C@H]([C@H](O)[C@@H](O)c4ccc(O)c(OS(=O)(=O)[O-])c4)NC(=O)[C@@H]4C[C@@H](O)CN4C(=O)C([C@@H](C)O)NC3=O)cc2)cc1.[Na+] (stereo not given in full) | 0.05 µg/mL | 0.002 µg/mL | 3950 µg/mL |  | 
CCCCCCCCOc1ccc(C(=O)N[C@H]2C[C@@H](O)[C@H](O)NC(=O)[C@@H]3[C@@H](O)[C@@H](C)CN3C(=O)[C@H]([C@H](O)CC(N)=O)NC(=O)[C@H]([C@H](O)[C@@H](O)c3ccc(O)c(OS(=O)(=O)[O-])c3)NC(=O)[C@@H]3C[C@@H](O)CN3C(=O)[C@H]([C@@H](C)O)NC2=O)cc1.[Na+] [FR-131535] ({Benzoyl(4-octyloxy)}-[Orn(4R-OH,5S-OH)]T[Hyp][hTyr(3S-OH,4S-OH,3'-OSO3H)][Gln(3R-OH)][Pro(3S-OH,4S-Me)]; lactam 1-C) | 0.78 µg/mL | 0.015 µg/mL | > 10000 µg/mL | 4.31 mg/kg | 3.71 mg/kg
CCCCCCCCCCOc1ccc(C(=O)N[C@@H]2C[C@@H](O)[C@@H](O)NC(=O)[C@@H]3[C@@H](O)[C@@H](C)CN3C(=O)[C@H]([C@H](O)CC(N)=O)NC(=O)[C@H]([C@H](O)[C@@H](O)c3ccc(O)c(OS(=O)(=O)[O-])c3)NC(=O)[C@@H]3C[C@@H](O)CN3C(=O)C([C@@H](C)O)NC2=O)cc1.[Na+] (stereo not given in full) | 0.2 µg/mL | 0.005 µg/mL | 10000 µg/mL |  | 
CCCCOc1ccc(-c2ccc(-c3ccc(C(=O)N[C@H]4C[C@@H](O)[C@@H](O)NC(=O)[C@@H]5[C@@H](O)[C@@H](C)CN5C(=O)[C@H]([C@H](O)CC(N)=O)NC(=O)[C@H]([C@H](O)[C@@H](O)c5ccc(O)c(OS(=O)(=O)O)c5)NC(=O)[C@@H]5C[C@@H](O)CN5C(=O)[C@H]([C@@H](C)O)NC4=O)cc3)cc2)cc1 (X1-[Orn(4R-OH,5R-OH)]T[Hyp][hTyr(3S-OH,4S-OH,3'-OSO3H)][Gln(3R-OH)][Pro(3S-OH,4S-Me)]; lactam 1-C) [listing 2 of 2 here] | 0.0125 µg/mL (≈ 9.88 nM) |  |  |  | 
CCCCCCCCCCCCOc1ccc2cc(C(=O)N[C@@H]3C[C@@H](O)[C@@H](O)NC(=O)[C@@H]4[C@@H](O)[C@@H](C)CN4C(=O)[C@H]([C@H](O)CC(N)=O)NC(=O)[C@H]([C@H](O)[C@@H](O)c4ccc(O)c(OS(=O)(=O)[O-])c4)NC(=O)[C@@H]4C[C@@H](O)CN4C(=O)C([C@@H](C)O)NC3=O)ccc2c1.[Na+] (stereo not given in full) | 0.78 µg/mL |  | 410 µg/mL |  | 
CCCCCCCOc1ccc2cc(C(=O)N[C@@H]3C[C@@H](O)[C@@H](O)NC(=O)[C@@H]4[C@@H](O)[C@@H](C)CN4C(=O)[C@H]([C@H](O)CC(N)=O)NC(=O)[C@H]([C@H](O)[C@@H](O)c4ccc(O)c(OS(=O)(=O)[O-])c4)NC(=O)[C@@H]4C[C@@H](O)CN4C(=O)C([C@@H](C)O)NC3=O)ccc2c1.[Na+] (stereo not given in full) | 0.39 µg/mL | 0.004 µg/mL | > 10000 µg/mL |  | 
CCCCCCCCOc1ccc(/C=C/C(=O)N[C@@H]2C[C@@H](O)[C@@H](O)NC(=O)[C@@H]3[C@@H](O)[C@@H](C)CN3C(=O)[C@H]([C@H](O)CC(N)=O)NC(=O)[C@H]([C@H](O)[C@@H](O)c3ccc(O)c(OS(=O)(=O)[O-])c3)NC(=O)[C@@H]3C[C@@H](O)CN3C(=O)C([C@@H](C)O)NC2=O)cc1.[Na+] (stereo not given in full) | 0.78 µg/mL |  | > 10000 µg/mL |  | 
CCCCCCOc1ccc2cc(C(=O)N[C@@H]3C[C@@H](O)[C@@H](O)NC(=O)[C@@H]4[C@@H](O)[C@@H](C)CN4C(=O)[C@H]([C@H](O)CC(N)=O)NC(=O)[C@H]([C@H](O)[C@@H](O)c4ccc(O)c(OS(=O)(=O)[O-])c4)NC(=O)[C@@H]4C[C@@H](O)CN4C(=O)C([C@@H](C)O)NC3=O)ccc2c1.[Na+] (stereo not given in full) | 0.78 µg/mL | 0.025 µg/mL | > 10000 µg/mL |  | 
CCCCCCCCCCOc1ccc2cc(C(=O)N[C@@H]3C[C@@H](O)[C@@H](O)NC(=O)[C@@H]4[C@@H](O)[C@@H](C)CN4C(=O)[C@H]([C@H](O)CC(N)=O)NC(=O)[C@H]([C@H](O)[C@@H](O)c4ccc(O)c(OS(=O)(=O)[O-])c4)NC(=O)[C@@H]4C[C@@H](O)CN4C(=O)C([C@@H](C)O)NC3=O)ccc2c1.[Na+] (stereo not given in full) | 0.2 µg/mL | 0.015 µg/mL | 750 µg/mL |  | 
